Data taken from patent US4834964A, “Use of charged nitroxides as NMR image enhancing agents for CSF” (M.R.I., Inc., priority 1986, dated 1989).

How the values were obtained:
[1] = U.S. Pat. No. 3,702,831; cited from earlier work
[2] = T1 relaxation time of CSF after injection of nitroxide into spinal cavity of dogs; type: in vivo; set-up: T1 RELAXATION TIME: unit not given here; details: dog; for T1 RELAXATION TIME: average of 4 studies, time 0: 3.11
Method: (§1) Dogs (data is the average of 4 independent studies) under general anesthetic were injected with 2 ml of a 10 mM stock solution of 4-(N,N,N-dimethylethylamino)-2,2,6,6-tetramethylpiperidin-oxyl iodide in saline (0.9%) into the spinal cavity (3 cm below the head). At defined times, samples of CSF were removed from a catheter inserted at the point of injection. The samples were analyzed for nitroxide concentration and relaxation times. (A separate experiment determined that charged nitroxides are not bioreduced by CSF fluid. Therefore, the diminution in nitroxide concentration is attributed to active transport from the spinal cavity.) The data obtained are set forth in the table below.

[3] = Stability/pharmacokinetics of nitroxide in the CSF of dogs (nitroxide concentration); type: in vivo; details: 20 umol/animal, dog, average of 4 studies
Method: as §1

[4] = NMR image enhancement with nitroxide (cranium and spinal column); type: in vivo; details: dog, 1.5 Tesla whole-body imager; 7, 21, 40, 60 and 90 min post injection, versus control images
Source text: An anesthetized dog (ca. 15 kg) as described in Example 1, in a prone position with front and hind legs extended and the head supported by a pillow in the upright position, was inserted into a small animal coil of a whole-body NMR imager (General Electric 1.5 Teslar instrument). Images of two cross-sections of the cranium and four cross-sections of the spinal column at various points below the point of injection were obtained as controls. The dog was removed from the instrument, injected with the NMR image-enhancing agent as described in Example 1 and the above-described images again obtained at 7, 21, 40, 60 and 90 minutes post injection. […] Because the loss in image enhancement is due to CSF turnover rather than decomposition of the nitroxide or passive diffusion thereof across the spinal cord, this procedure can be employed to study turnover of the CSF.

[5] = 5 min after 2 ml of 10 mM into spinal cavity
[6] = 10 min after 2 ml of 10 mM into spinal cavity
[7] = 20 min after 2 ml of 10 mM into spinal cavity
[8] = 30 min after 2 ml of 10 mM into spinal cavity
[9] = 45 min after 2 ml of 10 mM into spinal cavity
[10] = 60 min after 2 ml of 10 mM into spinal cavity
[11] = 75 min after 2 ml of 10 mM into spinal cavity
[12] = 90 min after 2 ml of 10 mM into spinal cavity
[13] = 150 min after 2 ml of 10 mM into spinal cavity

Question: Which in vivo elimination [1] does the source give for `CC(C)(C)N([O])C(C)(C)C` [di-tert-butylnitroxide] here?
Answer: The in vivo elimination was “rapidly eliminated in vivo”.

Question: With `CC[N+](C)(C)C1CC(C)(C)N([O])C(C)(C)C1` [4-(N,N,N-dimethylethylamino)-2,2,6,6-tetramethylpiperidinoxyl iodide] as the molecule, how does the “T1 RELAXATION TIME” value [2, 5] read?
Answer: Its value is 0.904.

Question: And the “T1 RELAXATION TIME” value [2, 6]?
Answer: Its value is 1.147.

Question: And the “T1 RELAXATION TIME” value [2, 7]?
Answer: Its value is 1.751.

Question: And the “T1 RELAXATION TIME” value [2, 8]?
Answer: The value was 1.942.

Question: And the “T1 RELAXATION TIME” value [2, 9]?
Answer: Its value is 2.439.

Question: And the “T1 RELAXATION TIME” value [2, 10]?
Answer: Its value is 2.533.

Question: And the “T1 RELAXATION TIME” value [2, 11]?
Answer: The value was 2.546.

Question: What about the “T1 RELAXATION TIME” value [2, 12] of the same molecule?
Answer: The value was 2.782.

Question: And the “T1 RELAXATION TIME” value [2, 13]?
Answer: Its value is 2.958.

Question: And the “T1 relaxation time, sufficiency for enhanced NMR image” value ([2]; 150 min after injection (footnote))?
Answer: The value was “insufficient to obtain an enhanced NMR image”.

Question: What about the concentration at 5 min [3, 5] of the same molecule?
Answer: Its concentration at 5 min is 3800 µM.

Question: What about the concentration at 10 min [3, 6] of the same molecule?
Answer: Its concentration at 10 min is 3300 µM.

Question: And the concentration at 20 min [3, 7]?
Answer: Its concentration at 20 min is 2200 µM.

Question: And the concentration at 0.5 h [3, 8]?
Answer: Its concentration at 0.5 h is 2000 µM.

Question: And the concentration at 0.75 h [3, 9]?
Answer: The concentration at 0.75 h was 1000 µM.

Question: What about the concentration at 1 h [3, 10] of the same molecule?
Answer: The concentration at 1 h was 720 µM.

Question: And the concentration at 1.25 h [3, 11]?
Answer: Its concentration at 1.25 h is 450 µM.

Question: And the concentration at 1.5 h [3, 12]?
Answer: Its concentration at 1.5 h is 220 µM.

Question: And the concentration at 1.75 h ([3]; 105 min after 2 ml of 10 mM into spinal cavity)?
Answer: Its concentration at 1.75 h is 70 µM.

Question: What about the concentration at 2.5 h [3, 13] of the same molecule?
Answer: Its concentration at 2.5 h is 30 µM.

Question: What about the “NMR image of CSF in spinal column” value [4] of the same molecule?
Answer: The value was “the CSF fluid in the spinal column was clearly imaged and produced a clear anatomical profile of the spinal column in each image, including the cranial sections and all of the 90 minute images”.
